How the values were obtained:
A549 = experiment: Cytotoxicity against human A549 cells assessed as inhibition of cell viability by MTT assay; assay type: functional, cell-based
Streptococcus pneumoniae = experiment: Antibacterial activity against Streptococcus pneumoniae CGMCC 1.1692 after 24 hrs; assay type: functional, organism-based; conditions: CGMCC 1.1692, 24 h
Staphylococcus aureus = experiment: Antibacterial activity against Staphylococcus aureus CGMCC 1.2465 after 24 hrs; conditions: CGMCC 1.2465, 24 h
Candida albicans = experiment: Antifungal activity against Candida albicans CGMCC 2.2086 after 24 hrs; assay type: functional, organism-based; conditions: CGMCC 2.2086, 24 h

SMILES | IC50 (A549; Homo sapiens, A549) [µM] | IC50 (A549; a549) [µM] | IC50 (Streptococcus pneumoniae) [µM] | IC50 (Staphylococcus aureus) [µM] | IC50 (Candida albicans) [µM]
O=c1[nH]c(Cc2ccc(O)cc2)nc2ccccc12 | > 120 | > 120 | > 150 | > 150 | –
C[C@@H]1[C@H](O)[C@@H](C)/C=C/C=C/C=C/C=C/C=C/C=C/C=C/[C@H](O[C@@H]2O[C@H](C)[C@@H](O)[C@H](N)[C@@H]2O)C[C@@H]2O[C@](O)(C[C@@H](O)C[C@@H](O)[C@H](O)CC[C@@H](O)C[C@@H](O)CC(=O)O[C@H]1C)C[C@H](O)[C@H]2C(=O)O [AMPHOTERICIN B] | – | – | – | – | 0.72
CC1(C)S[C@@H]2[C@H](NC(=O)[C@H](N)c3ccccc3)C(=O)N2[C@H]1C(=O)O [AMPICILLIN] | – | – | 1.08 | 0.06 | –
C/C(=N\Nc1ccccc1C(=O)O)C(=O)NCC(=O)O [FARYLHYDRAZONE A] | > 120 | > 120 | > 150 | > 150 | –
C/C(=N\Nc1ccccc1C(=O)O)C(=O)O [FARYLHYDRAZONE B] | > 120 | > 120 | > 150 | > 150 | –
CC[C@@H](C)C[C@@H](C)/C=C(C)/C=C/C=C/C(=O)c1c(O)c([C@]2(O)CC[C@@H](O)CC2)cn(O)c1=O [MILITARINONE A] | 1.75 | – | > 150 | > 150 | > 150
CC[C@@H](C)C[C@@H](C)/C=C(C)/C=C/C=C/C(=O)c1c(O)c(-c2ccc(O)cc2)c[nH]c1=O [MILITARINONE B] | > 120 | – | 2.6 | 2.11 | 43.4
CC[C@@H](C)C[C@@H](C)/C=C(C)/C=C/C=C/C(=O)c1c(O)c(C2=CC[C@@H](O)CC2)cn(O)c1=O [MILITARINONE E] | 1.59 | – | > 150 | > 150 | > 150
CC[C@@H](C)C[C@@H](C)/C=C(C)/C=C/C=C/C(=O)c1c(O)c([C@]23CC[C@H](CC2)O3)cn(O)c1=O [MILITARINONE F] | > 120 | > 120 | > 150 | > 150 | –

— ChEMBL document CHEMBL1667731, “N-hydroxypyridones, phenylhydrazones, and a quinazolinone from Isaria farinosa” (J Nat Prod, 2011)
